# Results: patent US20260224716A1, “PTH ANALOGS FOR THE TREATMENT OF HYPOPARATHYROIDISM” (priority 2020, published 2026)
# *1 amine or outer side, *2 acyl side, *3 side chain or, on linkers, in order; H or OH if unused. Where a SMILES comes first, the peptide text is derived from it. Side-chain parts run from the residue outwards. [ ]: non-standard residue; d: D form. The star is where a group is joined. C18 diacid = O=C(O)CCCCCCCCCCCCCCCCC(=O)*; γGlu = O=C(O)[C@H](CCC(=O)[*:2])N[*:1]; AEEA = NCCOCCOCC(=O)O; Sar = CNCC(=O)O
# Legend:
# [1] = Rate of model dipeptide cleavage from hexapeptide in PBS (HPLC, LC-MS); format: physicochemical; conditions: buffer
# Method: The solution was incubated at 37° C.
# The flow rate was 1 ml/min.
# [2] = Pharmacokinetics of A8 PTH prodrugs in monkeys, single subcutaneous dose (Example 8); format: in vivo, cynomolgus monkeys; conditions: single SC dose 25 nmol/kg, FIGS. 7A, 7B
# Method: The pharmacokinetic profile of PTH analogues following a single subcutaneous dose to cynomolgus monkeys and an evaluation of the pharmacodynamic response of serum calcium and phosphorus was investigated. A total of six monkey were used in this test 2 males and 4 females ranging in age from 2-4 years old at beginning of the study and having a weight of at least 2.5 kg.
# Animals were assigned to groups as noted in the Table 6 below. Animals were dosed by subcutaneous injection. Dose administration was staggered. The Group 1
# male was dosed once, and the remaining two Group 1 females and all Group 2 animals were dosed once, approximately four days later. First day of dosing was designated as Study Day (SD) 1 for each animal. The dose volume was 0.3 mL/kg. Individual dose volumes were calculated based on the animals' most recently recorded body weight. […]
# Pharmacokinetic mean concentration-time data was analyzed using non-compartmental methods (Phoenix® WinNonlin® Version 7.0 or higher) based on the route of administration. The following parameters were calculated whenever possible and as data allows: Cmax, Tmax, and AUC. […]
# Results from these pharmacokinetic (PK) studies are provided in FIGS. 7A and 7B wherein the concentration of the administered prodrug form and its activate drug form (produced after in vivo non-enzymatic cleavage of the dipeptide prodrug element) were measured over time.
structure (smiles),measurement,setting,value
CC[C@H](C)[C@H](NC(=O)[C@H](CCC(=O)O)NC(=O)[C@H](CO)NC(=O)[C@@H](NC(=O)[C@H](CO)NC(=O)CN(C)C(=O)[C@H](N)CCCCNC(=O)CC[C@H](NC(=O)COCCOCCNC(=O)COCCOCCNC(=O)CC[C@H](NC(=O)CCCCCCCCCCCCCCCCC(=O)O)C(=O)O)C(=O)O)C(C)C)C(=O)N[C@@H](CCC(N)=O)C(=O)N[C@@H](CC(C)C)C(=O)N[C@@H](C)C(=O)N[C@@H](Cc1c[nH]cn1)C(=O)N[C@@H](CC(N)=O)C(=O)N[C@@H](CC(C)C)C(=O)NCC(=O)N[C@@H](CCCCN)C(=O)N[C@@H](Cc1c[nH]cn1)C(=O)N[C@@H](CC(C)C)C(=O)N[C@@H](CC(N)=O)C(=O)N[C@@H](CO)C(=O)N[C@@H](CCSC)C(=O)N[C@@H](CCC(=O)O)C(=O)N[C@@H](CCCNC(=N)N)C(=O)N[C@H](C(=O)N[C@@H](CCC(=O)O)C(=O)N[C@@H](Cc1c[nH]c2ccccc12)C(=O)N[C@@H](CC(C)C)C(=O)N[C@@H](CCCNC(=N)N)C(=O)N[C@@H](CCCCN)C(=O)N[C@@H](CCCCN)C(=O)N[C@@H](CC(C)C)C(=O)N[C@@H](CCC(N)=O)C(=O)N[C@@H](CC(=O)O)C(=O)N[C@H](C(=O)N[C@@H](Cc1c[nH]cn1)C(=O)N[C@@H](CCCCNC(=O)CC[C@H](NC(=O)COCCOCCNC(=O)COCCOCCNC(=O)CC[C@H](NC(=O)CCCCCCCCCCCCCCCCC(=O)O)C(=O)O)C(=O)O)C(=O)O)C(C)C)C(C)C [SEQ ID NO: 95] (H-[dK]([γGlu-AEEA-AEEA-γGlu-C18 diacid])[Sar]SVSEIQLAHNLGKHLNSMERVEWLRKKLQDVHK([γGlu-AEEA-AEEA-γGlu-C18 diacid])-OH),half-life at 1 mg/ml,[1],> 20.8 days
same,plasma concentration versus singly fatty acylated prodrug SEQ ID: 94,[2],higher concentration that is sustained for a longer period
